These results are taken from ChEMBL document CHEMBL3124857, “Encoded library technology as a source of hits for the discovery and lead optimization of a potent and selective class of bactericidal direct inhibitors of Mycobacterium tuberculosis InhA” (J Med Chem, 2014).

The experiment concerns Mycobacterium tuberculosis. As to the kind of experiment: Selectivity for wild type Mycobacterium tuberculosis H37Rv ATCC 25618 over hygromycin-resistance Mycobacterium tuberculosis H37Rv ATCC 25618 overexpressing InhA. It counts as functional.

As to `CCNC(=O)[C@@H]1C[C@@H](NC(=O)c2cc(CC)nn2C)CN1C(=O)c1coc2ccccc12`, the Selectivity ratio amounted to 16.
